{"source": "ChEMBL document CHEMBL5505958", "about": "“Optimization of sequence and chiral content enhances therapeutic potential of tilapia piscidin peptides” (Eur J Med Chem, 2024)", "key": {"[1]": {"system": "Klebsiella pneumoniae", "assay": "Antibacterial activity against Klebsiella pneumoniae BAA 2473 assessed as inhibition of bacterial growth in presence of 1 microg/ml of trypsin (reference value: 1.56 to 3.13 microM)", "assay_type": "functional"}, "[2]": {"system": "Pseudomonas aeruginosa", "assay": "Antibacterial activity against Pseudomonas aeruginosa 19660 assessed as inhibition of bacterial growth incubated for 16 to 20 hrs", "assay_type": "functional", "settings": "time 16-20 hrs"}, "[3]": {"system": "Klebsiella oxytoca", "assay": "Antibacterial activity against Klebsiella oxytoca 13985 assessed as inhibition of bacterial growth incubated for 16 to 20 hrs in presence of human serum", "assay_type": "functional", "settings": "time 16-20 hrs"}, "[4]": {"system": "Klebsiella pneumoniae", "assay": "Bactericidal activity against Klebsiella pneumoniae BAA 2473 assessed as inhibition of bacterial growth in presence of 0.1 microg/ml of chymotrypsin (reference value: 1.56 to 3.13 microM)", "assay_type": "functional"}, "[5]": {"system": "Enterococcus faecium", "assay": "Bactericidal activity against Enterococcus faecium 10067 assessed as inhibition of bacterial growth incubated for 16 to 20 hrs", "assay_type": "functional", "settings": "time 16-20 hrs"}, "[6]": {"system": "Klebsiella pneumoniae", "assay": "Bactericidal activity against Klebsiella pneumoniae BAA 2473 assessed as inhibition of bacterial growth in presence of 0.1 microg/ml of pepsin (reference value: 1.56 to 3.13 microM)", "assay_type": "functional"}, "[7]": {"system": "Acinetobacter baumannii", "assay": "Antibacterial activity against Acinetobacter baumannii 10591 assessed as inhibition of bacterial growth incubated for 16 to 20 hrs in presence of human serum", "assay_type": "functional", "settings": "time 16-20 hrs"}, "[8]": {"system": "Staphylococcus haemolyticus", "assay": "Bactericidal activity against Staphylococcus haemolyticus 15237 assessed as inhibition of bacterial growth incubated for 16 to 20 hrs", "assay_type": "functional", "settings": "time 16-20 hrs"}, "[9]": {"system": "Staphylococcus haemolyticus", "assay": "Antibacterial activity against Staphylococcus haemolyticus 15237 assessed as inhibition of bacterial growth incubated for 16 to 20 hrs", "assay_type": "functional", "settings": "time 16-20 hrs"}, "[10]": {"system": "Klebsiella pneumoniae", "assay": "Antibacterial activity against Klebsiella pneumoniae BAA 2473 assessed as inhibition of bacterial growth in presence of 10 microg/ml of chymotrypsin (reference value: 1.56 to 3.13 microM)", "assay_type": "functional"}, "[11]": {"system": "Klebsiella oxytoca", "assay": "Bactericidal activity against Klebsiella oxytoca 13985 assessed as inhibition of bacterial growth incubated for 16 to 20 hrs in presence of human serum", "assay_type": "functional", "settings": "time 16-20 hrs"}, "[12]": {"system": "Klebsiella pneumoniae", "assay": "Antibacterial activity against Klebsiella pneumoniae BAA 2473 assessed as inhibition of bacterial growth in presence of 0.1 microg/ml of pepsin (reference value: 1.56 to 3.13 microM)", "assay_type": "functional"}, "[13]": {"system": "Acinetobacter baumannii", "assay": "Bactericidal activity against Acinetobacter baumannii 10591 assessed as inhibition of bacterial growth incubated for 16 to 20 hrs in presence of human serum", "assay_type": "functional", "settings": "time 16-20 hrs"}, "[14]": {"system": "Klebsiella pneumoniae", "assay": "Antibacterial activity against Klebsiella pneumoniae BAA 2473 assessed as inhibition of bacterial growth in presence of 0.1 microg/ml of proteinase K (reference value: 1.56 to 3.13 microM)", "assay_type": "functional"}, "[15]": {"system": "Salmonella typhimurium", "assay": "Bactericidal activity against Salmonella typhimurium DT104 assessed as inhibition of bacterial growth incubated for 16 to 20 hrs in presence of human serum", "assay_type": "functional, Salmonella enterica subsp. enterica serovar Typhimurium", "settings": "Salmonella enterica, time 16-20 hrs"}, "[16]": {"system": "Yersinia enterocolitica", "assay": "Bactericidal activity against Yersinia enterocolitica 13999 assessed as inhibition of bacterial growth incubated for 16 to 20 hrs", "assay_type": "functional", "settings": "time 16-20 hrs"}, "[17]": {"system": "Klebsiella pneumoniae", "assay": "Antibacterial activity against Klebsiella pneumoniae BAA 2473 assessed as inhibition of bacterial growth in presence of 10 microg/ml of proteinase K (reference value: 1.56 to 3.13 microM)", "assay_type": "functional"}, "[18]": {"system": "Klebsiella pneumoniae", "assay": "Bactericidal activity against Klebsiella pneumoniae TL 297 assessed as inhibition of bacterial growth incubated for 16 to 20 hrs in presence of human serum", "assay_type": "functional", "settings": "time 16-20 hrs"}, "[19]": {"system": "Salmonella enterica", "assay": "Antibacterial activity against Salmonella enterica 15455 assessed as inhibition of bacterial growth incubated for 16 to 20 hrs in presence of human serum", "assay_type": "functional", "settings": "time 16-20 hrs"}, "[20]": {"system": "Klebsiella pneumoniae", "assay": "Bactericidal activity against Klebsiella pneumoniae TL 297 assessed as inhibition of bacterial growth incubated for 16 to 20 hrs", "assay_type": "functional", "settings": "time 16-20 hrs"}, "[21]": {"system": "Klebsiella pneumoniae", "assay": "Antibacterial activity against Klebsiella pneumoniae BAA 2473 assessed as inhibition of bacterial growth in presence of 10 microg/ml of pepsin (reference value: 1.56 to 3.13 microM)", "assay_type": "functional"}, "[22]": {"system": "Klebsiella pneumoniae", "assay": "Bactericidal activity against Klebsiella pneumoniae BAA 2473 assessed as inhibition of bacterial growth in presence of 1 microg/ml of trypsin (reference value: 1.56 to 3.13 microM)", "assay_type": "functional"}, "[23]": {"system": "Enterococcus faecalis", "assay": "Antibacterial activity against Enterococcus faecalis 10066 assessed as inhibition of bacterial growth incubated for 16 to 20 hrs", "assay_type": "functional", "settings": "time 16-20 hrs"}, "[24]": {"system": "Vibrio vulnificus", "assay": "Antibacterial activity against Vibrio vulnificus 204 assessed as inhibition of bacterial growth incubated for 16 to 20 hrs in presence of human serum", "assay_type": "functional", "settings": "time 16-20 hrs"}, "[25]": {"system": "Klebsiella pneumoniae", "assay": "Bactericidal activity against Klebsiella pneumoniae BAA 2473 assessed as inhibition of bacterial growth in presence of 1 microg/ml of proteinase K (reference value: 1.56 to 3.13 microM)", "assay_type": "functional"}, "[26]": {"system": "Klebsiella pneumoniae", "assay": "Bactericidal activity against Klebsiella pneumoniae BAA 2473 assessed as inhibition of bacterial growth in presence of 0.1 microg/ml of proteinase K (reference value: 1.56 to 3.13 microM)", "assay_type": "functional"}, "[27]": {"system": "Enterococcus faecium", "assay": "Antibacterial activity against Enterococcus faecium 10067 assessed as inhibition of bacterial growth incubated for 16 to 20 hrs", "assay_type": "functional", "settings": "time 16-20 hrs"}, "[28]": {"system": "Yersinia enterocolitica", "assay": "Antibacterial activity against Yersinia enterocolitica 13999 assessed as inhibition of bacterial growth incubated for 16 to 20 hrs", "assay_type": "functional", "settings": "time 16-20 hrs"}, "[29]": {"system": "Klebsiella pneumoniae", "assay": "Antibacterial activity against Klebsiella pneumoniae BAA 2473 assessed as ciprofloxacin MIC", "assay_type": "functional"}, "[30]": {"system": "Salmonella typhimurium", "assay": "Antibacterial activity against Salmonella typhimurium DT104 assessed as inhibition of bacterial growth incubated for 16 to 20 hrs in presence of human serum", "assay_type": "functional, Salmonella enterica subsp. enterica serovar Typhimurium", "settings": "Salmonella enterica, time 16-20 hrs"}, "[31]": {"system": "Salmonella typhimurium", "assay": "Bactericidal activity against Salmonella typhimurium DT104 assessed as inhibition of bacterial growth incubated for 16 to 20 hrs", "assay_type": "functional, Salmonella enterica subsp. enterica serovar Typhimurium", "settings": "Salmonella enterica, time 16-20 hrs"}, "[32]": {"system": "Klebsiella pneumoniae", "assay": "Bactericidal activity against Klebsiella pneumoniae BAA 2473 assessed as inhibition of bacterial growth in presence of 10 microg/ml of pepsin (reference value: 1.56 to 3.13 microM)", "assay_type": "functional"}, "[33]": {"system": "Staphylococcus aureus", "assay": "Bactericidal activity against Staphylococcus aureus 10780 assessed as inhibition of bacterial growth incubated for 16 to 20 hrs in presence of human serum", "assay_type": "functional", "settings": "time 16-20 hrs"}, "[34]": {"system": "Klebsiella pneumoniae", "assay": "Bactericidal activity against Klebsiella pneumoniae BAA 2473 assessed as inhibition of bacterial growth in presence of 1 microg/ml of pepsin (reference value: 1.56 to 3.13 microM)", "assay_type": "functional"}, "[35]": {"system": "Salmonella enterica", "assay": "Bactericidal activity against Salmonella enterica 15455 assessed as inhibition of bacterial growth incubated for 16 to 20 hrs", "assay_type": "functional", "settings": "time 16-20 hrs"}, "[36]": {"system": "Klebsiella oxytoca", "assay": "Bactericidal activity against Klebsiella oxytoca 13985 assessed as inhibition of bacterial growth incubated for 16 to 20 hrs", "assay_type": "functional", "settings": "time 16-20 hrs"}, "[37]": {"system": "Pseudomonas aeruginosa", "assay": "Bactericidal activity against Pseudomonas aeruginosa 19660 assessed as inhibition of bacterial growth incubated for 16 to 20 hrs in presence of human serum", "assay_type": "functional", "settings": "time 16-20 hrs"}, "[38]": {"system": "Rhizopus arrhizus", "assay": "Fungicidal activity against Rhizopus oryzae 34550 assessed as inhibition of fungal growth incubated for 72 hrs", "assay_type": "functional"}, "[39]": {"system": "Klebsiella pneumoniae", "assay": "Bactericidal activity against Klebsiella pneumoniae BAA 2473 assessed as inhibition of bacterial growth in presence of 10 microg/ml of proteinase K (reference value: 1.56 to 3.13 microM)", "assay_type": "functional"}}}
{"smiles": "CC(C)C[C@H](NC(=O)[C@H](CCCCN)NC(=O)[C@@H](CCCCN)NC(=O)[C@H](CC(C)C)NC(=O)[C@@H](N)Cc1ccccc1)C(=O)N[C@H](CC(C)C)C(=O)N[C@@H](CCCCN)C(=O)N[C@@H](C)C(=O)N[C@H](CC(C)C)C(=O)N[C@@H](Cc1ccccc1)C(=O)N[C@@H](CO)C(=O)N[C@H](C)C(=O)N1CCC[C@H]1C(=O)N[C@@H](CCCCN)C(=O)N[C@H](C)C(=O)N[C@@H](CC(C)C)C(=O)N[C@@H](CCCCN)C(=O)N[C@H](CCCNC(=N)N)C(=O)N[C@@H](CC(C)C)C(=O)N[C@@H](CC(C)C)C(=O)N[C@H](CCCNC(=N)N)C(=O)N[C@@H](CCCNC(=N)N)C(=O)N[C@@H](CCCNC(=N)N)C(=O)N[C@H](CCCNC(=N)N)C(=O)N[C@@H](CCCNC(=N)N)C(=O)O", "values": [{"measurement": "MIC", "setting": "[1]", "result": 1.56, "unit": "µM"}, {"measurement": "MIC", "setting": "[2]", "result": 3.13, "unit": "µM"}, {"measurement": "MIC", "setting": "[3]", "result": 3.13, "unit": "µM"}, {"measurement": "MBC", "setting": "[4]", "result": 0.78, "unit": "µM"}, {"measurement": "MBC", "setting": "[5]", "result": 12.5, "unit": "µM"}, {"measurement": "MBC", "setting": "[6]", "result": 0.78, "unit": "µM"}, {"measurement": "MIC", "setting": "[7]", "result": 3.13, "unit": "µM"}, {"measurement": "MBC", "setting": "[8]", "result": 1.56, "unit": "µM"}, {"measurement": "MIC", "setting": "[9]", "result": 1.56, "unit": "µM"}, {"measurement": "MIC", "setting": "[10]", "result": 0.78, "unit": "µM"}, {"measurement": "MBC", "setting": "[11]", "result": 3.13, "unit": "µM"}, {"measurement": "MIC", "setting": "[12]", "result": 0.78, "unit": "µM"}, {"measurement": "MBC", "setting": "[13]", "result": 6.25, "unit": "µM"}, {"measurement": "MIC", "setting": "[14]", "result": 0.78, "unit": "µM"}, {"measurement": "MBC", "setting": "[15]", "result": 3.13, "unit": "µM"}, {"measurement": "MBC", "setting": "[16]", "result": 3.13, "unit": "µM"}, {"measurement": "MIC", "setting": "[17]", "result": 0.78, "unit": "µM"}, {"measurement": "MBC", "setting": "[18]", "result": 1.56, "unit": "µM"}, {"measurement": "MIC", "setting": "[19]", "result": 0.78, "unit": "µM"}, {"measurement": "MBC", "setting": "[20]", "result": 6.25, "unit": "µM"}, {"measurement": "MIC", "setting": "[21]", "result": 0.78, "unit": "µM"}, {"measurement": "MBC", "setting": "[22]", "result": 1.56, "unit": "µM"}, {"measurement": "MIC", "setting": "[23]", "result": 25, "unit": "µM"}, {"measurement": "MIC", "setting": "[24]", "result": 12.5, "unit": "µM"}, {"measurement": "MBC", "setting": "[25]", "result": 1.56, "unit": "µM"}, {"measurement": "MBC", "setting": "[26]", "result": 0.78, "unit": "µM"}, {"measurement": "MIC", "setting": "[27]", "result": 3.13, "unit": "µM"}, {"measurement": "MIC", "setting": "[28]", "result": 3.13, "unit": "µM"}, {"measurement": "MIC", "setting": "[29]", "result": 0.195, "unit": "µM"}, {"measurement": "MIC", "setting": "[30]", "result": 3.13, "unit": "µM"}, {"measurement": "MBC", "setting": "[31]", "result": 6.25, "unit": "µM"}, {"measurement": "MBC", "setting": "[32]", "result": 0.78, "unit": "µM"}, {"measurement": "MBC", "setting": "[33]", "result": 100, "unit": "µM"}, {"measurement": "MBC", "setting": "[34]", "result": 0.78, "unit": "µM"}, {"measurement": "MBC", "setting": "[35]", "result": 6.25, "unit": "µM"}, {"measurement": "MBC", "setting": "[36]", "result": 1.56, "unit": "µM"}, {"measurement": "MBC", "setting": "[37]", "result": 6.25, "unit": "µM"}, {"measurement": "MFC", "setting": "[38]", "result": 0.78, "unit": "µM"}, {"measurement": "MBC", "setting": "[39]", "result": 0.78, "unit": "µM"}]}
